SMILES strings stand for the structures.

Experiment [1] relates to Partial Sciatic Nerve Ligation (PSNL) model. Briefly: Partial Sciatic Nerve Ligation (PSNL) model, behavioral tests. Format: in vivo, male Sprague-Dawley rats. The settings on record: oral route, relative to vehicle control, measured 30 minutes post dose. From the text:
250-350 g male Sprague-Dawley rats from appropriate animal resources were anesthetized with 2.5% isoflurane. A hind leg was shaved, and the skin was sterilized with 0.5% iodine and 75% alcohol. All surgical instruments were sterilized before surgery and between animals. An incision (1 cm) was made at the middle of the thigh in parallel with the muscle and sciatic nerve distribution. The muscle was exposed and dissected at the joint of two muscles (biceps femoris) indicated by the light colored (white) fascia line. The sciatic nerve was just beneath the muscle and was hooked out using an 18-20 G feeding needle (90 degree curved); the sciatic nerve was flat on the feeding needle and approximately one-half the diameter of the nerve is tightly ligated with 7-0 silk suture. A response of the injured leg twitch indicates the success of ligation. After checking hemostasis, bupivicaine 0.1-0.2 ml (0.125%) was given at the incision area, the muscle and the adjacent fascia are closed with 5-0 absorbable sutures. The skin was sutured with absorbable suture and tissue glue. The control group using sham surgery animals (about 8-10 animals) underwent the same surgical procedure but with no nerve ligation. Animals were returned to their home cage after recovery from anesthesia.
The analgesic effect of the test compound was expressed as a percent recovery (% Recovery) relative to the sham control group baseline and calculated according to the formula:
% Recovery=100%−{[(sham mean−test compound mean)/(sham mean−vehicle mean)]×100%}
wherein “sham mean” refers to average score in the sham-operated group; “test compound mean” refers to average score in the PSNL-group (animals with partial sciatic nerve ligation) or diabetic group (animals treated with STZ) treated with a test compound; “vehicle mean” refers to average score in the PSNL-group or diabetic group treated with vehicle only. The above formula was used to obtain data for the following in vivo behavioral tests.
The following behavioral tests were conducted (i.e., plantar test, paw pressure test, and von Frey test) started on day 3 and thereafter once weekly following surgery or use of a diabetic inducer. […]
Rats were placed on the glass surface of a thermal testing apparatus (Model 336, IITC/Life Science Instruments, Woodland Hills, Calif.) and were allowed to acclimate for 10 min before testing on the glass surface at room temperature. […] The paw withdrawal latency was recorded by a digital timer. The thermal threshold was determined as the mean withdrawal latency from two to three consecutive trials of both hindpaws. […]
Animals were placed under clear plastic boxes above a wire mesh floor, which allowed full access to the paws. […] Mechanical paw withdrawal thresholds (PWTs) were measured with the up-down testing paradigm. […]

Experiment [2] relates to rat streptozotocin-induced model for diabetes. Briefly: Evaluation of Anti-Diabetic Effect in In Vivo Model of Diabetes (chronic dosing, STZ rats). How it is done: 250-350 g male Sprague-Dawley rats from appropriate animal resources were used. Type I diabetes was induced by a single injection, (intraperitoneally, intravenously or intramuscularly) of 50-100 mg/kg of streptozotocin (STZ, Sigma Chemicals, St. Louis, Mo. or VWR) freshly dissolved in sodium citrate (0.01 M, pH 4.5). Sham animals were given either saline or same vehicle injection. Following a wait time of about two days, inducement of diabetes was confirmed in STZ-injected rats by measuring the plasma glucose concentrations in blood samples from the tail vein after a fast of 6 hours. The glucose level was assayed using a mini glucose monitor (kit for AlphaTRAK 2 meter, available from Abbott Laboratories). Screening for hyperglycemia in STZ-injected animals was done, with only animals with a final blood glucose level ≧300 mg/dl being selected for the study. Glucose levels in the sham animals remained normal. Other parameters (water intake, food intake, and bodyweight) were monitored before the treatment with a test compound and after the cessation of the treatment.
A Compound provided herein is tested in the rat STZ model of diabetes by chronic administration of the Compound for at least 7 days to evaluate analgesic and antidiabetic effects of the Compound. The analgesic effect of the Compound can be evaluated using behavioral tests (e.g., von Frey test, plantar test, and paw pressure test described herein below). The anti-diabetic effect of the Compound can be evaluated based on the improvement in the glucose level, food intake, water intake in the compound treated group compared to the untreated vehicle group and the normal, non-diabetic sham control group.
Diabetes mellitus was induced in rats as described in paragraph [00327] above.
The baseline glucose levels, daily food and water intake and behavioral tests (von Frey, paw pressure and plantar tests) were measured for each animal once weekly for 28 weeks, and once every 2-4 weeks for an additional 28-30 weeks. At a selected week (started from week 6) for a compound test, diabetic rats were divided into two test groups: a vehicle control group and a test compound treated group (n=10 each group). A sham group (saline only without STZ i.p. injection, n=10) was added as a normal, non-diabetic control group. To minimize animal stress associated with repeated daily handling, the compound treated diabetic group of animals received the test compound at a daily dose of 60 mg/kg in their drinking water containing 2% PEG600 and 1% glycofurol (the test compound concentration in the drinking water was based on the individual animal's average daily water consumption as determined the pre-dosing period, which averaged 0.1-0.11 mg/ml). The vehicle control group received drinking water containing 2% PEG600 and 1% glycofurol without the test compound. The treatment continued for 9 days. On day 10 drinking water with test compound or vehicle (2% PEG600 and 1% glycofurol) was replaced with plain drinking water in all groups. The monitoring of glucose levels, food and water intake as well as behavior tests continued for additional 28-30 weeks. […] A gradual, significant reversal of up to 90% of mechanical allodynia (von Frey test) was achieved after 9 days of treatment.
FIGS. 1-3 show food intake, glucose level, and water intake, respectively, for the vehicle control group, the test compound treated group (compound 49, 60 mg/kg/day), and the sham group. […] The significant reduction of food intake, glucose level, and water intake of the compound treated group compared to the vehicle control group continues through week 52. […] Since the standard deviation in the sham groups are less than 5%, no error bars are shown.

The mark [3] stands for this setting: diabetic rats, 60 mg/kg/day in drinking water for 9 days.
Where [4] appears, read: measured on day 11, two days after compound withdrawal.

Regarding `NC(=O)CNCCCc1cc(Cl)ccc1Oc1cc(F)c(S(=O)(=O)Nc2cscn2)cc1Cl` [Compound 49, 2-((3-(5-chloro-2-(2-chloro-5-fluoro-4-(N-(thiazol-4-yl)sulfamoyl)phenoxy)phenyl)propyl)amino)acetamide], the “effect in the tactile allodynia test” value in experiment [1] is recorded as “no significant effect”. Also, in experiment [2] (diabetic rats, 60 mg/kg/day for 9 days, compared to vehicle control group, continues through week 52 (FIG. 1)), the food intake entry is “significantly reduced”. The glucose level entry in experiment [2] (diabetic rats, 60 mg/kg/day for 9 days, compared to vehicle control group, continues through week 52 (FIG. 2)) is recorded as “significantly reduced”. Further, in experiment [2] (diabetic rats, 60 mg/kg/day for 9 days, compared to vehicle control group, continues through week 52 (FIG. 3)), the water intake entry is reported as “significantly reduced”. Besides, in experiment [2] (setting [3]), the “mechanical pain (paw pressure test)” value was “rapid and sustained improvement”; the “thermal pain (plantar test)” value is “rapid and sustained improvement”. For the same compound, the tachyphylaxis result in experiment [2] (diabetic rats, 60 mg/kg/day in drinking water for 9 days, paw pressure and plantar tests) is reported as “no tachyphylaxis”. Also, in experiment [2] (diabetic rats, 60 mg/kg/day in drinking water, after 9 days of treatment), the “reversal of mechanical allodynia (von Frey test)” value is given as “up to 90%”. The “time allodynia threshold (von Frey test) stayed significantly above the pretreatment level baseline after compound withdrawal” value in experiment [2] (diabetic rats, after 9 days of 60 mg/kg/day) is listed as “up to 5 days”. For the same compound, the “general appearance and/or health” value in experiment [2] (diabetic rats, after treatment with 60 mg/kg/day stopped on day 9) is “improvements in general appearance and/or health”. Also, in experiment [2] (setting [4]), the “paw pressure test threshold after compound withdrawal” value is listed as “returned to the pretreatment baseline” and the “plantar test threshold after compound withdrawal” value is given as “returned to the pretreatment baseline”.
